For one data set, the target named is human BACE1 (Homo sapiens, UniProt P56817). The data set can be described thus: Fluorescent kinetic assay, evaluation of BACE1 binding affinity of test compounds. Conditions: 10 nM human BACE1, 25 μM substrate WABC-6, pH 4.5, room temperature; read-out: BACE1 IC50. The data set is classed as biochemical. The method in brief:
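Kinetic fluorescence assay: enzyme added last to inhibitor and substrate mix, reading started immediately; substrate at 100 μM working dilution (25 μL in 100 μL total). Buffer 66.7 mM Na-acetate pH 4.5 with 0.0667% CHAPS for inhibitor and enzyme dilutions; enzyme stock quantified at 280 nm.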
human BACE1, sequence (P56817 46-501): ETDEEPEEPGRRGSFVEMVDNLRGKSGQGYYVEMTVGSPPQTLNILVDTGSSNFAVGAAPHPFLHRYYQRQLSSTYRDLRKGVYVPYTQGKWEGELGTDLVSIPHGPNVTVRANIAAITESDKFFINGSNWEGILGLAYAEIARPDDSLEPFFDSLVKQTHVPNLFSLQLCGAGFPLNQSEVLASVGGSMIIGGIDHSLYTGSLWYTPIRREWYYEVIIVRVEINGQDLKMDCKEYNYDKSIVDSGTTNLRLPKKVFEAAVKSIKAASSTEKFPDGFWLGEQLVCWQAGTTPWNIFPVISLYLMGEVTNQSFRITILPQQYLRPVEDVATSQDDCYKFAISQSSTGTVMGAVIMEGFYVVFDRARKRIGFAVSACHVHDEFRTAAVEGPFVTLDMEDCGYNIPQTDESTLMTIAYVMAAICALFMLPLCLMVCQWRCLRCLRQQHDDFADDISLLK
Broadly, the IC50 is the concentration needed to halve the response being measured. On to `CN1C(=O)C(c2cccc(Br)c2)(c2ccc(OC(F)F)c(C3CC3)c2)N=C1N` (stereo not drawn) [Example 164, 2-Amino-5-(3-bromo-phenyl)-5-(3-cyclopropyl-4-difluoromethoxy-phenyl)-3-methyl-3,5-dihydro-imidazol-4-one], for which the IC50 was less than 100 nM.

Turning to `CN1C(=O)C(c2cccc(C#CCF)c2)(c2ccc(OC(F)F)c(C3CC3)c2)N=C1N` (stereo not drawn) [Example 209, 2-amino-5-[3-cyclopropyl-4-(difluoromethoxy)phenyl]-5-[3-(3-fluoroprop-1-yn-1-yl)phenyl]-3-methyl-3,5-dihydro-4H-imidazol-4-one], the IC50 was less than 100 nM.

Regarding `CN1C(=O)C(c2ccc(F)c(C#CCF)c2)(c2ccc(OC(F)F)c(C3CC3)c2)N=C1N` (stereo not drawn) [Example 210, 2-amino-5-[3-cyclopropyl-4-(difluoromethoxy)phenyl]-5-[4-fluoro-3-(3-fluoroprop-1-yn-1-yl)phenyl]-3-methyl-3,5-dihydro-4H-imidazol-4-one], the IC50 was less than 100 nM.

Turning to `CN1C(=O)C(c2cccc(C#CCCF)c2)(c2ccc(OC(F)F)c(C3CC3)c2)N=C1N` (stereo not drawn) [Example 211, 2-amino-5-[3-cyclopropyl-4-(difluoromethoxy)phenyl]-5-[3-(4-fluorobut-1-yn-1-yl)phenyl]-3-methyl-3,5-dihydro-4H-imidazol-4-one], the IC50 was less than 100 nM.

`CN1C(=O)[C@@](c2cccc(C#CCF)c2)(c2ccc(OC(F)F)c(C3CC3)c2)N=C1N` [Example 212, (5R)-2-amino-5-[3-cyclopropyl-4-(difluoromethoxy)phenyl]-5-[3-(3-fluoroprop-1-yn-1-yl)phenyl]-3-methyl-3,5-dihydro-4H-imidazol-4-one]: the IC50 is more than 1000 nM.

Regarding `CN1C(=O)[C@](c2cccc(C#CCF)c2)(c2ccc(OC(F)F)c(C3CC3)c2)N=C1N` [Example 213, (5S)-2-amino-5-[3-cyclopropyl-4-(difluoromethoxy)phenyl]-5-[3-(3-fluoroprop-1-yn-1-yl)phenyl]-3-methyl-3,5-dihydro-4H-imidazol-4-one], the IC50 was less than 100 nM.

As for `CN1C(=O)[C@@](c2ccc(F)c(C#CCCF)c2)(c2ccc(OC(F)F)c(C3CC3)c2)N=C1N` [Example 214, (5S)-2-amino-5-[3-cyclopropyl-4-(difluoromethoxy)phenyl]-5-[4-fluoro-3-(4-fluorobut-1-yn-1-yl)phenyl]-3-methyl-3,5-dihydro-4H-imidazol-4-one], the IC50 was more than 1000 nM.

For `CN1C(=O)[C@](c2ccc(F)c(C#CCCF)c2)(c2ccc(OC(F)F)c(C3CC3)c2)N=C1N` [Example 215, (5R)-2-amino-5-[3-cyclopropyl-4-(difluoromethoxy)phenyl]-5-[4-fluoro-3-(4-fluorobut-1-yn-1-yl)phenyl]-3-methyl-3,5-dihydro-4H-imidazol-4-one], the IC50 was less than 100 nM.

System in the next data set: not given
Assay: not given
Conditions: not given
What is called melting point is the temperature, or range, at which the solid turns liquid. The compound `CN1C(=O)C(c2cccc(Br)c2)(c2ccc(OC(F)F)c(C3CC3)c2)N=C1N` (stereo not drawn) [Example 164, 2-Amino-5-(3-bromo-phenyl)-5-(3-cyclopropyl-4-difluoromethoxy-phenyl)-3-methyl-3,5-dihydro-imidazol-4-one] registered a melting point of 85 to 87 °C.

Source of the values: patent US20090042964A1, “AMINO-5-[SUBSTITUTED-4-(DIFLUOROMETHOXY)PHENYL]-5-PHENYLIMIDAZOLONE COMPOUNDS AS BETA-SECRETASE INHIBITORS” (Wyeth, priority 2007, published 2009).
